Literature values, collected in US20080237028A1, “Nucleation in liquid, methods of use thereof and methods of generation thereof” (Hanoch KISLEV, priority 2006, published 2008).
Values after ≈ are worked out from the molar mass of the structure shown.

Assays:
[1] = test system: biofilms of wild-type Pseudomonas aeruginosa; conditions: compared to equivalent bacteria lacking ability to generate biofilm
[2] = test system: β-lactamase negative strain of Klebsiella pneumoniae; conditions: planktonic
[3] = test system: β-lactamase negative strain of Klebsiella pneumoniae grown as a biofilm
[4] = test system: biofilm forming P. aeroginosa bacteria; conditions: mature biofilm grown from bacteria treated with quorum sensing molecules; not in the untreated sample

In the case of `OCl` [sodium hypochlorite], the “concentration increase required to kill biofilms” value [1] is listed as 600 fold.

For `CC1(C)S[C@@H]2[C@H](NC(=O)[C@H](N)c3ccccc3)C(=O)N2[C@H]1C(=O)O` [Ampicillin], the “minimum inhibitory concentration (MIC)” value [2] is listed as 2 mg/L (≈ 5.72 µM), the “increase in MIC” value ([3]; biofilm versus planktonic, 5000 μg/mL) is listed as 2500 fold and the “survival of biofilm under treatment” value ([3]; treated for 4 hours with 5000 μg/mL ampicillin) is listed as “survives well”.

For `NC[C@H]1O[C@H](O[C@H]2[C@H](O)[C@@H](O[C@H]3O[C@H](CO)[C@@H](O)[C@H](N)[C@H]3O)[C@H](N)C[C@@H]2N)[C@H](N)C[C@@H]1O` [tobramicyn], the “bacteria death within biofilm” value [4] is listed as “complete bacteria death”.
